Measurements: patent publication US20240091185A1, “COMPOSITION FOR IMPROVING COGNITIVE FUNCTION, AGENT FOR IMPROVING COGNITIVE FUNCTION, AND FOOD FOR IMPROVING COGNITIVE FUNCTION” (AJINOMOTO CO., INC., priority 2021, published 2024)

Assays:
Type in all cases: in vivo, mouse
[1] = system: learning and/or memory functions of C57Bl/6j mice (LPS-induced learning and/or memory disorder model); experiment: Novel object recognition test in LPS-induced learning and/or memory disorder model (Experimental Example 1); conditions: 3 g/kg body weight oral once a day for 13 days; LPS 250 μg/kg i.p. day 4 to 10; Tukey; Example 1 p<0.05
Procedure: To the control LPS group was orally administered 10 mL of distilled water per kg of mouse body weight once a day for 13 consecutive days.
The agent of Comparative Example 2 was suspended in distilled water at a concentration of 0.3 g/mL, and 10 mL (3 g/kg body weight) was orally administered per kg of mouse body weight once a day for 13 consecutive days to the group to be administered with the agent of Comparative Example 2 (LPS+Gly3). […]
During the training trial, the ratio (%) of the time of contact with object A1 or A2 with a shorter contact time to the total time of contact with the two objects (A1 and A2) placed in the experimental arena was calculated.
During the retention trial, the ratio (%) of the time of contact with object B to the total time of contact with the two objects (A1 and B, or A2 and B) placed in the experimental arena was determined. […]

[2] = system: Sonic hedgehog (Shh) gene; experiment: Hippocampal gene expression level by RNA-seq (TPM), Shh; conditions: oral once a day for 13 days (Example 1 3 g/kg, Comp. Ex. 4 2 g/kg, Comp. Ex. 5 1 g/kg); Dunnett; p<0.05 for Example 1
Procedure: (§1) At that time, as comparison samples, 2 g of glycine was used as the agent of Comparative Example 4, and 1 g of L-serine was used as the agent of Comparative Example 5, and the action on gene expression in the mouse hippocampus was similarly examined.
(§2) The agent of Comparative Example 4 was suspended in 0.5 wt % methylcellulose aqueous solution at a concentration of 0.2 g/mL, and 10 mL (2 g/kg body weight) was orally administered per kg of mouse body weight once a day for 13 consecutive days to the group to be administered with the agent of Comparative Example 4 (LPS+Gly2).
as §2, with “5” for “4”, “0.1” for “0.2”, “(1” for “(2”, “5 (LPS+L-Ser1).” for “4 (LPS+Gly2).”
(§3) Hippocampal tissue was collected from each group of mice that had been administered with each suspension or vehicle shown in Table 5 for 13 consecutive days, total RNA was extracted from each individual separately, and RNA sequencing (RNA-seq) was performed. […] Samples from individuals suspected of being contaminated at the time of tissue collection were excluded from analysis.

[3] = system: Thyroid stimulating hormone receptor (TShr) gene; experiment: Hippocampal gene expression level by RNA-seq (TPM), Tshr; conditions: oral once a day for 13 days (Example 1 3 g/kg, Comp. Ex. 4 2 g/kg, Comp. Ex. 5 1 g/kg); Dunnett; p<0.05 for Example 1
Procedure: as §1, §2
as §2, with “5” for “4”, “0.1” for “0.2”, “(1” for “(2”, “5 (LPS+L-Ser1).” for “4 (LPS+Gly2).”
as §3

[4] = system: Family with sequence similarity 107 member a (Fam107a) gene; experiment: Hippocampal gene expression level by RNA-seq (TPM), Fam107a; conditions: oral once a day for 13 days (Example 1 3 g/kg, Comp. Ex. 4 2 g/kg, Comp. Ex. 5 1 g/kg); Dunnett; p<0.05 for Example 1
Procedure: as §1, §2
as §2, with “5” for “4”, “0.1” for “0.2”, “(1” for “(2”, “5 (LPS+L-Ser1).” for “4 (LPS+Gly2).”
as §3

[5] = system: Galanin and GMAP prepropeptide (Gal) gene; experiment: Hippocampal gene expression level by RNA-seq (TPM), Gal; conditions: oral once a day for 13 days (Example 1 3 g/kg, Comp. Ex. 4 2 g/kg, Comp. Ex. 5 1 g/kg); Dunnett; p<0.05 for Example 1
Procedure: as §1, §2
as §2, with “5” for “4”, “0.1” for “0.2”, “(1” for “(2”, “5 (LPS+L-Ser1).” for “4 (LPS+Gly2).”
as §3

[6] = system: D-site of albumin promoter (albumin D-box) binding protein (Dbp) gene; experiment: Hippocampal gene expression level by RNA-seq (TPM), Dbp; conditions: oral once a day for 13 days (Example 1 3 g/kg, Comp. Ex. 4 2 g/kg, Comp. Ex. 5 1 g/kg); Dunnett; p<0.05 for Example 1
Procedure: as §1, §2
as §2, with “5” for “4”, “0.1” for “0.2”, “(1” for “(2”, “5 (LPS+L-Ser1).” for “4 (LPS+Gly2).”
as §3

NCC(=O)O [Comparative Example 2, glycine]
RI value (%) during the retention trial, compared with the group orally administered with distilled water (LPS) [1]: significant difference was not observed

NCC(=O)O [Comparative Example 4, glycine]
expression of the Shh gene in hippocampus vs solvent alone (LPS) [2]: significant changes in the expression levels of genes were not observed
expression of the Tshr gene in hippocampus vs solvent alone (LPS) [3]: significant changes in the expression levels of genes were not observed
expression of the Fam107a gene in hippocampus vs solvent alone (LPS) [4]: significant changes in the expression levels of genes were not observed
expression of the Gal gene in hippocampus vs solvent alone (LPS) [5]: significant changes in the expression levels of genes were not observed
expression of the Dbp gene in hippocampus vs solvent alone (LPS) [6]: significant changes in the expression levels of genes were not observed

N[C@@H](CO)C(=O)O [Comparative Example 5, L-serine]
expression of the Shh gene in hippocampus vs solvent alone (LPS) [2]: significant changes in the expression levels of genes were not observed
expression of the Tshr gene in hippocampus vs solvent alone (LPS) [3]: significant changes in the expression levels of genes were not observed
expression of the Fam107a gene in hippocampus vs solvent alone (LPS) [4]: significant changes in the expression levels of genes were not observed
expression of the Gal gene in hippocampus vs solvent alone (LPS) [5]: significant changes in the expression levels of genes were not observed
expression of the Dbp gene in hippocampus vs solvent alone (LPS) [6]: significant changes in the expression levels of genes were not observed
